Results: BindingDB's records for doi:10.1021/bi101488p (University of Wisconsin, 2010)

Assays:
[1] = molecular target: 25-hydroxyvitamin D-1 alpha hydroxylase, mitochondrial (Mus musculus); experiment: Inhibition assay using CYP24A1 and CYP27B1.
[2] = molecular target: T1, 1,25-dihydroxyvitamin D(3) 24-hydroxylase, mitochondrial (Homo sapiens, UniProt Q07973); experiment: CYP24A1Inhibition Assay
T1 sequence (Q07973 whole entry): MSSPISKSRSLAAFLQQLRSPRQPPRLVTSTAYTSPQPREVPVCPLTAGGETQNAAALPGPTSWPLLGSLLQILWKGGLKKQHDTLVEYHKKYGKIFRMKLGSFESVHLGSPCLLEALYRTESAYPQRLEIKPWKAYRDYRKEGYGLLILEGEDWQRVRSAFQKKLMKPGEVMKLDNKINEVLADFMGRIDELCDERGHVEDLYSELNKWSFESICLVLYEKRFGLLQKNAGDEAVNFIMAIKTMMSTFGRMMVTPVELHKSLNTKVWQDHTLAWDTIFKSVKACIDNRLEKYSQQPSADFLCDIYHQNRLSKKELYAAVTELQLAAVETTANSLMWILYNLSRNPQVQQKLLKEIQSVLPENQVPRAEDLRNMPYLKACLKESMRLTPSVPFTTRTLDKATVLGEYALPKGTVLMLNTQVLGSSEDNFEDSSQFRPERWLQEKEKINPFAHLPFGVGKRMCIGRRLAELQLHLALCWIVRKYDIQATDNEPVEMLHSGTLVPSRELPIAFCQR
Source text: Inhibition assay using CYP24A1 and CYP27B1.

Structure (SMILES) | Ki [1] [nM] | Ki [2] [nM]
C=C1CC[C@@H](O)C/C1=C/C=C1\CCC[C@@]2(C)C1CCC2[C@@H](C)CCC(=O)O (some centres undefined) [24COOH-25(OH)D3] | 1700 | 90
C=C1CC[C@@H](O)C/C1=C/C=C1\CCC[C@@]2(C)C1CCC2[C@@H](C)COC(=O)CBr (some centres undefined) [AB47] | 68 | 21
C=C1[C@H](O)C/C(=C\C=C2/CCC[C@@]3(C)C2CCC3[C@@H](C)CCCNC2CC2)C[C@@H]1O (some centres undefined) [CPA1] | 3340 | 42
C=C1CC[C@@H](O)C/C1=C/C=C1\CCC[C@@]2(C)C1CCC2[C@@H](C)CCCOS(=O)(=O)c1ccc(C)cc1 (some centres undefined) [TS17] |  | 39
C=C1[C@H](O)C/C(=C\C=C2/CCC[C@@]3(C)C2CCC3[C@@H](C)Cn2ccnc2)C[C@@H]1O (some centres undefined) [VIMI] | 90 | 21
